System: 192522-019-R-J2-PDC complex tumor spheroid viability
Assay: Anticancer human tumor 192522-019-R-J2-PDC patient-derived colon adenocarcinoma cell line growth inhibition [POLQ]
Details: for IC50: curve of first compound; for viability, T/C: stronger effect = lower value
In short: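 Growth inhibition in 3D: complex spheroids (tumor PDC, HUVEC, MSC) treated with POLQ inhibitor combinations; where Cmax unknown, highest tested concentration 10 microM, except SN-38 at 1 microM.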

[1] = second compound 0.0316 µM, first compound 0.0316 µM
[2] = second compound 0.0316 µM, first compound 0.1 µM
[3] = second compound 0.0316 µM, first compound 0.316 µM
[4] = second compound 0.0316 µM, first compound 1 µM
[5] = second compound 0.0316 µM, first compound 3.16 µM
[6] = second compound 0.0316 µM, first compound 10 µM
[7] = second compound 0.1 µM, first compound 0.0316 µM
[8] = second compound 0.1 µM, first compound 0.1 µM
[9] = second compound 0.1 µM, first compound 0.316 µM
[10] = second compound 0.1 µM, first compound 1 µM
[11] = second compound 0.1 µM, first compound 3.16 µM
[12] = second compound 0.1 µM, first compound 10 µM
[13] = second compound 0.316 µM, first compound 0.0316 µM
[14] = second compound 0.316 µM, first compound 0.1 µM
[15] = second compound 0.316 µM, first compound 0.316 µM
[16] = second compound 0.316 µM, first compound 1 µM
[17] = second compound 0.316 µM, first compound 3.16 µM
[18] = second compound 0.316 µM, first compound 10 µM
[19] = second compound 1 µM, first compound 0.0316 µM
[20] = second compound 1 µM, first compound 0.1 µM
[21] = second compound 1 µM, first compound 0.316 µM
[22] = second compound 1 µM, first compound 1 µM
[23] = second compound 1 µM, first compound 3.16 µM
[24] = second compound 1 µM, first compound 10 µM
[25] = second compound 3.16 µM, first compound 0.0316 µM
[26] = second compound 3.16 µM, first compound 0.1 µM
[27] = second compound 3.16 µM, first compound 0.316 µM
[28] = second compound 3.16 µM, first compound 1 µM
[29] = second compound 3.16 µM, first compound 3.16 µM
[30] = second compound 3.16 µM, first compound 10 µM
[31] = second compound 10 µM, first compound 0.0316 µM
[32] = second compound 10 µM, first compound 0.1 µM
[33] = second compound 10 µM, first compound 0.316 µM
[34] = second compound 10 µM, first compound 1 µM
[35] = second compound 10 µM, first compound 3.16 µM
[36] = second compound 10 µM, first compound 10 µM
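Further: spheroids exposed to drugs for seven days before reading.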
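Wherever viability, T/C is given: 100% = DMSO vehicle control viability in luminescence.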

SMILES: CCc1cc2c(N3CCc4c(cc(Cn5ccnc5)cc4-c4cn(C)nc4C(F)(F)F)C3=O)cc(C)nc2c(OC)n1 + COC1C(OC(N)=O)C(O)C(Oc2ccc3c(O)c(NC(=O)c4ccc(O)c(CC=C(C)C)c4)c(=O)oc3c2C)OC1(C)C
- IC50 (second compound 0.0316 µM): > 10 µM
- IC50 (second compound 0.1 µM): > 10 µM
- IC50 (second compound 0.316 µM): > 10 µM
- IC50 (second compound 1 µM): > 10 µM
- IC50 (second compound 3.16 µM): > 10 µM
- IC50 (second compound 10 µM): > 10 µM
- viability, T/C [1]: 95.6%
- viability, T/C [2]: 90.6%
- viability, T/C [3]: 90.5%
- viability, T/C [4]: 82.8%
- viability, T/C [5]: 79.2%
- viability, T/C [6]: 60.7%
- viability, T/C [7]: 94.2%
- viability, T/C [8]: 94.3%
- viability, T/C [9]: 81.5%
- viability, T/C [10]: 82.4%
- viability, T/C [11]: 72.3%
- viability, T/C [12]: 67.4%
- viability, T/C [13]: 101%
- viability, T/C [14]: 96.7%
- viability, T/C [15]: 96.1%
- viability, T/C [16]: 81.6%
- viability, T/C [17]: 82.6%
- viability, T/C [18]: 69.7%
- viability, T/C [19]: 99%
- viability, T/C [20]: 96.8%
- viability, T/C [21]: 85.1%
- viability, T/C [22]: 84.3%
- viability, T/C [23]: 68.5%
- viability, T/C [24]: 72.4%
- viability, T/C [25]: 95.6%
- viability, T/C [26]: 98.8%
- viability, T/C [27]: 87.1%
- viability, T/C [28]: 83.9%
- viability, T/C [29]: 74.6%
- viability, T/C [30]: 66.2%
- viability, T/C [31]: 102%
- viability, T/C [32]: 91.4%
- viability, T/C [33]: 87.5%
- viability, T/C [34]: 80.6%
- viability, T/C [35]: 88.9%
- viability, T/C [36]: 73.4%

SMILES: CCc1cc2c(N3CCc4c(cc(Cn5ccnc5)cc4-c4cn(C)nc4C(F)(F)F)C3=O)ccnc2c(OC)n1 + Cc1cccc(N(C)C(=O)C2C(O)CCN2c2nc(C)cc(C(F)(F)F)c2C#N)c1
- IC50 (second compound 0.0316 µM): > 10 µM
- IC50 (second compound 0.1 µM): > 10 µM
- IC50 (second compound 0.316 µM): > 10 µM
- IC50 (second compound 1 µM): > 10 µM
- IC50 (second compound 3.16 µM): > 10 µM
- IC50 (second compound 10 µM): > 10 µM
- viability, T/C [1]: 107%
- viability, T/C [2]: 93.3%
- viability, T/C [3]: 93.9%
- viability, T/C [4]: 78.7%
- viability, T/C [5]: 82.3%
- viability, T/C [6]: 72.7%
- viability, T/C [7]: 99.6%
- viability, T/C [8]: 90.7%
- viability, T/C [9]: 85.4%
- viability, T/C [10]: 93%
- viability, T/C [11]: 70.7%
- viability, T/C [12]: 63.7%
- viability, T/C [13]: 108%
- viability, T/C [14]: 92.8%
- viability, T/C [15]: 89.1%
- viability, T/C [16]: 88.5%
- viability, T/C [17]: 85.2%
- viability, T/C [18]: 72.9%
- viability, T/C [19]: 108%
- viability, T/C [20]: 95.9%
- viability, T/C [21]: 94.6%
- viability, T/C [22]: 90.1%
- viability, T/C [23]: 90.2%
- viability, T/C [24]: 85.3%
- viability, T/C [25]: 105%
- viability, T/C [26]: 98%
- viability, T/C [27]: 96.8%
- viability, T/C [28]: 91.2%
- viability, T/C [29]: 91.3%
- viability, T/C [30]: 82.3%
- viability, T/C [31]: 104%
- viability, T/C [32]: 98.9%
- viability, T/C [33]: 99.2%
- viability, T/C [34]: 92.4%
- viability, T/C [35]: 88%
- viability, T/C [36]: 88.7%

SMILES: Nc1ccn(C2OC(CO)C(O)C2(F)F)c(=O)n1 (stereo unspecified) + Nc1ccc(C#CCN(C(=O)Cc2ncc(C(F)(F)F)cc2C(F)(F)F)c2ccc(F)cc2)nn1
- IC50 (second compound 0.0316 µM): > 10 µM
- IC50 (second compound 0.1 µM): > 10 µM
- IC50 (second compound 0.316 µM): > 10 µM
- IC50 (second compound 1 µM): > 10 µM
- IC50 (second compound 3.16 µM): > 10 µM
- IC50 (second compound 10 µM): > 10 µM
- viability, T/C [1]: 100%
- viability, T/C [2]: 96.1%
- viability, T/C [3]: 80.6%
- viability, T/C [4]: 80.3%
- viability, T/C [5]: 76.3%
- viability, T/C [6]: 69.5%
- viability, T/C [7]: 102%
- viability, T/C [8]: 94%
- viability, T/C [9]: 81%
- viability, T/C [10]: 76.8%
- viability, T/C [11]: 80.9%
- viability, T/C [12]: 66.8%
- viability, T/C [13]: 112%
- viability, T/C [14]: 90.9%
- viability, T/C [15]: 82.2%
- viability, T/C [16]: 80.4%
- viability, T/C [17]: 83.5%
- viability, T/C [18]: 69.7%
- viability, T/C [19]: 105%
- viability, T/C [20]: 94.7%
- viability, T/C [21]: 88.4%
- viability, T/C [22]: 82.9%
- viability, T/C [23]: 82.4%
- viability, T/C [24]: 69.8%
- viability, T/C [25]: 104%
- viability, T/C [26]: 91.4%
- viability, T/C [27]: 85.1%
- viability, T/C [28]: 82.3%
- viability, T/C [29]: 83.8%
- viability, T/C [30]: 71.4%
- viability, T/C [31]: 109%
- viability, T/C [32]: 98.5%
- viability, T/C [33]: 95.3%
- viability, T/C [34]: 84.6%
- viability, T/C [35]: 84.4%
- viability, T/C [36]: 72.2%

Reference: PubChem BioAssay AID1963850 (Molecular Pharmacology Branch, DTP, NCI, 2024)
